Reference: ChEMBL document CHEMBL1201862, “PubChem BioAssay data set” (2004)
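Method: 48-hour compound exposure of cells in 96-well plates, five concentrations, linear interpolation of endpoints. The concentration for 50% growth inhibition is given as GI50.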 Active and inactive are the calls of the source. Rule as the data show it: active = GI50 up to about 1.1 µM and inactive = higher.

Legend:
Assay in all cases: NCI-60 cell line screen, 48 h
SR = tested on: SR
MDA-MB-435 = tested on: MDA-MB-435
M14 = tested on: M14
BT-549 = tested on: BT-549
SNB-19 = tested on: SNB-19
OVCAR-8 = tested on: OVCAR-8
ACHN = tested on: ACHN
CCRF-CEM = tested on: CCRF-CEM
RXF 393 = tested on: RXF 393
NCI-H460 = tested on: NCI-H460
PC-3 = tested on: PC-3
NCI/ADR-RES = tested on: NCI/ADR-RES
HL-60 = tested on: HL-60
SNB-75 = tested on: SNB-75
A498 = tested on: A498
UACC-257 = tested on: UACC-257
SK-MEL-2 = tested on: SK-MEL-2
MOLT-4 = tested on: MOLT-4
MDA-MB-231 = tested on: MDA-MB-231
LXFL 529 = tested on: LXFL 529

Measured: GI50

CN1C(=O)C(C(N)=O)C2CC1(C)Oc1ccccc12 (stereo unspecified)
inactive: SR > 100 µM | MDA-MB-435 > 100 µM | M14 > 100 µM | BT-549 > 100 µM | SNB-19 > 100 µM | OVCAR-8 > 100 µM | ACHN > 100 µM | CCRF-CEM > 100 µM | RXF 393 > 100 µM | NCI-H460 > 100 µM | PC-3 > 100 µM | NCI/ADR-RES > 100 µM | HL-60 > 100 µM | SNB-75 > 100 µM | A498 > 100 µM | UACC-257 > 100 µM | SK-MEL-2 > 100 µM | MOLT-4 > 100 µM | MDA-MB-231 > 100 µM

CCCCCCCCCC1CC(=O)NCC(=O)NC(C(C)C)C(=O)NC(CC(C)C)C(=O)NC(C)C(=O)NC(C(C)C)C(=O)O1 (stereo unspecified)
inactive: SR 13.3 µM | MDA-MB-435 10.4 µM | M14 20.2 µM | BT-549 11.4 µM | SNB-19 18.7 µM | OVCAR-8 6.03 µM | ACHN > 79.8 µM | CCRF-CEM 15.7 µM | RXF 393 35.3 µM | NCI-H460 5.38 µM | PC-3 6.9 µM | NCI/ADR-RES > 100 µM | HL-60 56.1 µM | SNB-75 12.3 µM | A498 1.36 µM | UACC-257 38.8 µM | SK-MEL-2 25.2 µM | MOLT-4 13.3 µM | MDA-MB-231 10.2 µM

O=C1C=CC(=O)c2c1ccc1c3ccccc3n(-c3ccccn3)c21
inactive: M14 27.5 µM | OVCAR-8 24.7 µM | ACHN 21.2 µM | CCRF-CEM 2.5 µM | NCI-H460 > 100 µM | HL-60 3.5 µM | SNB-75 > 100 µM | UACC-257 18.5 µM | SK-MEL-2 45.4 µM | MOLT-4 4.8 µM | LXFL 529 14.8 µM

CCOc1ccc2c(c1)[n+]([O-])c(-c1ccc(Br)cc1)c(N)[n+]2[O-]
inactive: M14 49 µM | SNB-19 57.3 µM | OVCAR-8 57.7 µM | ACHN 47.2 µM | CCRF-CEM 53.1 µM | NCI-H460 47.3 µM | HL-60 31.3 µM | SNB-75 > 100 µM | A498 45.3 µM | UACC-257 59.4 µM | SK-MEL-2 > 100 µM | MOLT-4 40.9 µM | LXFL 529 52.2 µM

C[C@]12Cc3conc3C(O)=C1CC[C@@H]1C2CC[C@@]2(C)C1CC[C@]2(C)O (stereo partly specified)
inactive: M14 16 µM | SNB-19 25.3 µM | OVCAR-8 23.4 µM | ACHN 26.5 µM | CCRF-CEM 8.97 µM | RXF 393 18.9 µM | NCI-H460 13.6 µM | HL-60 2.09 µM | SNB-75 10.2 µM | A498 16.1 µM | UACC-257 22.4 µM | SK-MEL-2 14.3 µM | MOLT-4 15.2 µM | LXFL 529 15.1 µM

COC(=O)CCC(=O)CC(=O)C(=O)Nc1ccc(F)cc1
inactive: M14 > 100 µM | SNB-19 > 100 µM | OVCAR-8 > 100 µM | ACHN > 100 µM | CCRF-CEM > 100 µM | RXF 393 54 µM | NCI-H460 > 100 µM | SNB-75 > 100 µM | A498 > 100 µM | UACC-257 > 100 µM | SK-MEL-2 > 100 µM | MOLT-4 > 100 µM | LXFL 529 > 100 µM

C[C@]12CCC3[C@@H](CC[C@@H]4c5nonc5CC[C@]34C)C1CCC2=O (stereo partly specified)
inactive: M14 18.3 µM | SNB-19 40.4 µM | OVCAR-8 31.7 µM | ACHN 24.5 µM | CCRF-CEM 21.8 µM | RXF 393 26.2 µM | NCI-H460 19.2 µM | HL-60 15.7 µM | SNB-75 35.4 µM | A498 21.4 µM | UACC-257 18 µM | SK-MEL-2 20.3 µM | MOLT-4 23.2 µM | LXFL 529 23.3 µM

CN1CN(c2ccccc2)C2(CCN(C(=O)OC(C)(C)C)CC2)C1=O
inactive: SR > 100 µM | MDA-MB-435 > 100 µM | M14 > 100 µM | BT-549 > 100 µM | SNB-19 > 100 µM | OVCAR-8 > 100 µM | ACHN > 100 µM | CCRF-CEM > 100 µM | RXF 393 63.2 µM | NCI-H460 > 100 µM | PC-3 > 100 µM | NCI/ADR-RES > 100 µM | HL-60 > 100 µM | SNB-75 > 100 µM | A498 > 100 µM | UACC-257 > 100 µM | SK-MEL-2 > 100 µM | MOLT-4 > 100 µM | MDA-MB-231 > 100 µM

Nc1cccc(CCN2CCN(CCCc3ccccc3)CC2)c1
inactive: SR 19.2 µM | MDA-MB-435 18.6 µM | M14 17.6 µM | BT-549 52.5 µM | SNB-19 > 100 µM | OVCAR-8 22.6 µM | ACHN > 100 µM | CCRF-CEM 25.8 µM | RXF 393 21.2 µM | NCI-H460 25.4 µM | PC-3 70.1 µM | NCI/ADR-RES > 100 µM | HL-60 17.2 µM | SNB-75 > 100 µM | A498 47.5 µM | UACC-257 24.2 µM | SK-MEL-2 > 100 µM | MOLT-4 30.5 µM | MDA-MB-231 36.5 µM

O=C1CC(n2cccc2)c2c(Br)sc(Br)c21 (stereo unspecified)
inactive: SR 3.89 µM | MDA-MB-435 14.4 µM | M14 14.9 µM | BT-549 18.6 µM | SNB-19 14.9 µM | OVCAR-8 15.2 µM | ACHN 17.5 µM | CCRF-CEM 6.35 µM | RXF 393 20.6 µM | NCI-H460 18 µM | PC-3 16.4 µM | NCI/ADR-RES 26.1 µM | HL-60 15.1 µM | SNB-75 18.7 µM | A498 24.9 µM | UACC-257 15.1 µM | SK-MEL-2 14.5 µM | MOLT-4 8.93 µM | MDA-MB-231 15.7 µM

O=S1(=O)NN=C(NCc2ccc(Cl)cc2)c2ccccc21
inactive: M14 74 µM | SNB-19 > 100 µM | OVCAR-8 > 100 µM | ACHN > 100 µM | CCRF-CEM 45.2 µM | RXF 393 30.5 µM | NCI-H460 > 100 µM | HL-60 > 100 µM | A498 > 100 µM | UACC-257 > 100 µM | SK-MEL-2 > 100 µM | MOLT-4 22.8 µM | LXFL 529 61.1 µM

C=CC1=CSNN1
inactive: M14 > 100 µM | SNB-19 > 100 µM | OVCAR-8 > 100 µM | ACHN > 100 µM | CCRF-CEM > 100 µM | RXF 393 > 100 µM | NCI-H460 > 100 µM | HL-60 > 100 µM | SNB-75 > 100 µM | A498 > 100 µM | UACC-257 > 100 µM | SK-MEL-2 > 100 µM | MOLT-4 > 100 µM | LXFL 529 > 100 µM

O=C(O)CN(c1ccc(F)cc1)S(=O)(=O)c1ccccc1
inactive: M14 > 100 µM | SNB-19 > 100 µM | OVCAR-8 > 100 µM | ACHN > 100 µM | CCRF-CEM > 100 µM | RXF 393 > 100 µM | NCI-H460 > 100 µM | HL-60 > 100 µM | SNB-75 > 100 µM | A498 > 100 µM | UACC-257 > 100 µM | SK-MEL-2 > 100 µM | MOLT-4 > 100 µM | LXFL 529 > 100 µM
